Test results: patent US9987371B2 (priority 2013, dated 2018)
Entries after “also recorded” stand apart in the source; their conditions may differ. Read-outs that look alike come from different tables or passages of the source.

Tests used:
GFP in B16 GFP cells [1] = type: cell-based; settings: for Able to transfect?: GFP knockdown at 50 nM; for outcome of screening for GFP siRNA delivery: peptide:polynucleotide ratio between 50:1 and 200:1
GFP in B16 GFP cells [2] = type: cell-based
B16-F10 cells [3] = type: cell-based
B16F10 cells [4] = test: Confocal microscopy of cytoplasmic oligonucleotide release in B16 cells; type: cell-based
B16F10 cells [5] = test: Acridine orange staining for endosomal/lysosomal disruption; type: cell-based; settings: 100 nM siRNA, 12 hours
Experimental: Endosomal disruption in living cells was observed by acridine orange staining. Cells were first loaded with acridine orange (10 μM, 15 minutes), which fluoresces red at low pH in the endosome but green at cytoplasmic pH. Endosomal disruption can be visualized by an increase in cytoplasmic green fluorescence in the presence of 100 μM chloroquine (FIG. 21F).
B16F10 cells plated on coverslips are loaded with acridine orange at 10 μM for 15 minutes and washed for 3× in PBS before incubation in the presence of p5RHH/siRNA nanoparticles in 10% DMEM at a final siRNA concentration of 100 nM for 12 hours. Alternatively, cells were exposed to chloroquine (Sigma) at 100 μM for 15 minutes prior to imaging. Live cells were visualized by fluorescence microscopy on an Olympus BX610 (Tokyo, Japan).

[6] = all tested doses, Hou et al., 2013; cited from earlier work
[7] = tested on: Rabbit red blood cells (RBC); test: RBC hemolysis; type: cell-based
Experimental: The lytic capacity of liberated p5RHH can be quantified in vitro with red blood cell (RBC) hemolysis assays. When incubated at decreasing pH, the ability of p5RHH/siRNA nanoparticles to lyse RBC is enhanced, due to the release of free p5RHH at pH ≤5.5 (FIG. 210). These assays were performed at 4° C. to decrease the rate of auto-hemolysis observed at higher temperatures.
Rabbit red blood cells (RBC) were isolated from whole blood by centrifugation and washed in PBS 3× before storage at 4° C. Prior to hemolysis studies, RBC were washed 3× in pH appropriate HBSS and diluted 1 to 5000. RBCs in pH-specific buffer were then incubated with p5RHH/siRNA nanoparticles for 12 hours. The RBC remnants were pelleted by centrifugation and the hemoglobin content of the supernatant was measured by UV absorbance at 550 nm. Absorbance values were then normalized against maximum lysis by p5RHH only controls and presented as the average of 3 separate experiments.

B16-F10 cells [8] = tested on: B16-F10 cells
B16 GFP cells = test: Alamar Blue cell viability of transfected B16 GFP cells; type: cell-based
Experimental: Cell viability was determined 72 hours post transfection using Alamar Blue (Life technologies). Briefly, Alamar Blue was diluted 1:10 into phenol red free medium and incubated with cells for 2-4 hours. Fluorescence was measured on a fluorescent plate reader with excitation at 570 nm and emission at 585 nm (Varian Cary Eclipse, Agilent Technologies, Santa Clara, Calif.).
B16 GFP cells were transfected with increasing concentrations of p5RHH/siRNA nanoparticles containing GFP-specific or scrambled siRNA. For comparison, B16 GFP cells were also transfected with increasing concentrations of GFP specific or scrambled siRNA using lipofectamine 2000. RNA extracted from transfected cells was analyzed using Northern blot analysis, and normalized viability of transfected B16 cells was determined (FIG. 28).

[9] = charge ratio (+/−) 6:1 (peptide/siRNA 62:1, 28:1 or 50:1 by peptide)
[10] = charge ratio (+/−) 12:1 (peptide/siRNA 124:1, 56:1 or 100:1 by peptide)
[11] = charge ratio (+/−) 24:1 (peptide/siRNA 248:1, 112:1 or 200:1 by peptide)

In the case of VLTTGLPALISWIKRKRQQC [Peptide 5C], the “Able to transfect?” value (GFP in B16 GFP cells [1]; [9]) is reported as “No”, the “Able to transfect?” value (GFP in B16 GFP cells [1]; [10]) is reported as “No” and the “Able to transfect?” value (GFP in B16 GFP cells [1]; [11]) is reported as “No”.

With CCN(CC)CCCC(C)Nc1ccnc2cc(Cl)ccc12 (centres unmarked) [chloroquine, reference compound] the “effect of chloroquine on p5RHH mediated GFP knockdown” value (GFP in B16 GFP cells [2]) was “does not improve knockdown”.

With VLKVLTTLAPALISWIRRRHRRC [p5RH-LL] the “Able to transfect?” value (GFP in B16 GFP cells [1]; [9]) was “No”, the “Able to transfect?” value (GFP in B16 GFP cells [1]; [10]) was “Yes” and the “Able to transfect?” value (GFP in B16 GFP cells [1]; [11]) was “No”. For the same compound, the “outcome of screening for GFP siRNA delivery” value (from here on “outcome of screening”) (GFP in B16 GFP cells [1]) was “able to transfect”.

For VLTTGLPALISWIRRRHRRC [p5RH], the “Able to transfect?” value (GFP in B16 GFP cells [1]; [9]) was “No”, the “Able to transfect?” value (GFP in B16 GFP cells [1]; [10]) was “Yes” and the “Able to transfect?” value (GFP in B16 GFP cells [1]; [11]) was “No”. For the same compound, the “outcome of screening” value (GFP in B16 GFP cells [1]) was “able to transfect”.

For CCN(c1nc(N)c(C(=O)NC(=N)N)nc1Cl)C(C)C [EIPA], the “effect of endocytosis inhibitor on p5RHH/siRNA nanoparticle uptake” value (B16-F10 cells [3]) was “dramatically reduces p5RHH/siRNA uptake; also recorded: nearly abolishes nanoparticle uptake”.

With CCCCC[C@@H](O)[C@H]1C(=O)O[C@H](C)[C@@H](O)/C=C/C=C/C=C/C=C/C=C(\C)[C@@H](O)C[C@H](O)C[C@H](O)C[C@H](O)C[C@H](O)C[C@H](O)C[C@@H]1O [filipin] the “effect of endocytosis inhibitor on p5RHH/siRNA nanoparticle uptake” value (B16-F10 cells [3]) was “no effect; also recorded: do not inhibit”.

In the case of CO/C1=C\C(C)=C\[C@@H](C)[C@@H](O)[C@@H](C)C/C(C)=C/C=C/[C@H](OC)[C@@H]([C@@H](C)[C@@H](O)[C@H](C)[C@@]2(O)C[C@@H](O)[C@H](C)[C@@H](C(C)C)O2)OC1=O [bafilomycin A1, reference compound], the “effect of bafilomycin A1 on p5RHH mediated GFP knockdown” value (GFP in B16 GFP cells [1]) is reported as “near complete loss of GFP knockdown; also recorded: blocks knockdown of GFP” and the “effect of bafilomycin A1 on p5RHH/siRNA uptake” value (B16-F10 cells [3]) is reported as “did not impair p5RHH/siRNA uptake; also recorded: does not inhibit uptake”.

For VLTTGLPALISWIKRKRQQRWRRRR [p5RWR], the “Able to transfect?” value (GFP in B16 GFP cells [1]; [9]) was “No”, the “Able to transfect?” value (GFP in B16 GFP cells [1]; [10]) was “No” and the “Able to transfect?” value (GFP in B16 GFP cells [1]; [11]) was “No”. The “siRNA transfection ability (GFP knockdown)” value (GFP in B16 GFP cells [1]; flow cytometry, without / with 50 μM chloroquine) was “unable to initiate GFP knockdown without the aid of chloroquine; also recorded: no siRNA transfection ability”, the “oligonucleotide release into the cytoplasm” value (B16F10 cells [4]) was “do not reach the cytoplasm; also recorded: does not manifest appreciable oligonucleotide release into the cytoplasm” and the “endosomal disruption (acridine orange release)” value (B16F10 cells [5]) was “cannot”. For the same compound, the “GFP knockdown by western blotting” value (GFP in B16 GFP cells [2]) was “unable to induce GFP knockdown even in the presence of chloroquine”.

In the case of CC[C@H](C)[C@H](NC(=O)CN)C(=O)NCC(=O)N[C@@H](C)C(=O)N[C@H](C(=O)N[C@@H](CC(C)C)C(=O)N[C@@H](CCCCN)C(=O)N[C@H](C(=O)N[C@@H](CC(C)C)C(=O)N[C@H](C(=O)N[C@H](C(=O)NCC(=O)N[C@@H](CC(C)C)C(=O)N1CCC[C@H]1C(=O)N[C@@H](C)C(=O)N[C@@H](CC(C)C)C(=O)N[C@H](C(=O)N[C@@H](CO)C(=O)N[C@@H](Cc1c[nH]c2ccccc12)C(=O)N[C@H](C(=O)N[C@@H](CCCCN)C(=O)N[C@@H](CCCNC(=N)N)C(=O)N[C@@H](CCCCN)C(=O)N[C@@H](CCCNC(=N)N)C(=O)N[C@@H](CCC(N)=O)C(=O)N[C@@H](CCC(N)=O)C(N)=O)[C@@H](C)CC)[C@@H](C)CC)[C@@H](C)O)[C@@H](C)O)C(C)C)C(C)C [Melittin, reference compound], the “Able to transfect?” value (GFP in B16 GFP cells [1]; [9]) is reported as “No”, the “Able to transfect?” value (GFP in B16 GFP cells [1]; [10]) is reported as “Toxic” and the “Able to transfect?” value (GFP in B16 GFP cells [1]; [11]) is reported as “Toxic”. For the same compound, the “outcome of screening” value (GFP in B16 GFP cells [1]) was “too toxic”.

For CC[C@H](C)[C@H](NC(=O)[C@H](CC(C)C)NC(=O)[C@H](C)NC(=O)[C@@H]1CCCN1C(=O)[C@H](CC(C)C)NC(=O)CNC(=O)[C@@H](NC(=O)[C@@H](NC(=O)[C@H](CC(C)C)NC(=O)[C@@H](N)C(C)C)[C@@H](C)O)[C@@H](C)O)C(=O)N[C@@H](CO)C(=O)N[C@@H](Cc1c[nH]c2ccccc12)C(=O)N[C@H](C(=O)N[C@@H](CCCNC(=N)N)C(=O)N[C@@H](CCCNC(=N)N)C(=O)N[C@@H](CCCNC(=N)N)C(=O)N[C@@H](Cc1c[nH]cn1)C(=O)N[C@@H](CCCNC(=N)N)C(=O)N[C@@H](CCCNC(=N)N)C(=O)N[C@@H](Cc1c[nH]cn1)C(=O)N[C@@H](CS)C(=O)O)[C@@H](C)CC [p5RHH], the cytotoxicity [6] is given as “without significant cytotoxicity”, the “cytotoxicity towards HUVEC cells” value (HUVEC cells) is given as “no cytotoxicity” and the IC50 ([7]; free peptide, normalized to 0.1% Triton-X, read-out: IC50 of RBC lysis) is given as 200 to 400 µM. For the same compound, the “pH at which hemolysis / hemoglobin release is increased” value ([7]; p5RHH/siRNA nanoparticles, 4° C.) was no more than 5.5, the “nonspecific cytotoxicity (B16 viability)” value (B16-F10 cells [8]) was “no effect on B16 viability” and the “decreased B16-F10 viability” value (B16-F10 cells [8]; mouse) was 60%. The “cytotoxicity in RAW264.7 cells” value (RAW264.7 cells) was “without cytotoxicity”, the “decrease in cell viability” value (RAW264.7 cells) was roughly 5% and the “cytotoxicity at p5RHH:siRNA ratios up to 200:1” value (B16 GFP cells; Alamar blue, 50 nM siRNA) was “no sign of cytotoxicity”. For the same compound, the “decrease in cell viability” value (B16 GFP cells; highest concentrations tested) was roughly 3% and the “toxicity by Alamar blue” value (B16 GFP cells; siRNA concentrations up to 200 nM) was “minimal toxicity”.
